Assay results from US11684616B2, “Azalactam compounds as HPK1 inhibitors” (PFIZER INC., priority 2020, dated 2023).
pKi: −log10 of the molar value.

biological target: human full-length autophosphorylated recombinant HPK1 (Homo sapiens (Human), UniProt Q92918); experiment: HPK1 biochemical enzyme assay (chelation-enhanced fluorescence, CHEF); conditions: 0.5 nM HPK1, 45 μM ATP, Morrison fit
Procedure: HPK1 Biochemical Enzyme Assay
HPK1 enzyme inhibition was measured by using the fluorescence-based chelation-enhanced fluorescence (CHEF) method (1), and by using a proprietary fluorescent peptide substrate, in which a cysteine residue is alkylated with a sulfonamido-oxine-based derivative to afford an amino acid termed C-Sox (CSx). […] Initial reaction velocities were determined by following the peptide fluorescence (λex=360 nm, λem=500 nm) at 30° C. for 15 min in a Tecan M1000 plate reader (Tecan Group Ltd., Mannedorf, Zurich, Switzerland).
Production of Autophosphorylated Full-Length Recombinant HPK1
The DNA sequence encoding full-length human HPK1 (Genbank NM_001042600.2) was synthesized at GenScript and contained a limited number of silent base changes to eliminate certain restriction endonuclease enzyme recognition sites, and fused to a DNA sequence encoding a Tobacco Etch Virus (TEV)-cleavable N-terminal polyhistidine purification tag. A recombinant baculovirus was prepared by using the Bac-to-Bac method (InVitrogen) and was used to infect 9 L of Sf21 insect cells. All purification steps were carried out at 4° C. Cells containing recombinant HPK1 were lysed in 50 mM HEPES-NaOH, pH 7.5, 250 mM NaCl, 1 mM tris(2-carboxyethyl)phosphine (TCEP), 10 μM leupeptin (Sigma), 10 μM E-64 (Sigma), and one ‘EDTA-free’ protease inhibitor tablet (Roche) per 75 mL buffer, centrifuged at 15,000×g for 1 h and the supernatant passed over 5 mL of ProBond IMAC resin (InVitrogen). After washing, HPK1 was eluted with 12.5 mL of 50 mM HEPES-NaOH, pH 7.5, 400 mM NaCl, 250 mM imidazole-HCl pH 7.5, 1 mM TCEP, 2 μM leupeptin, and 2 μM E-64. The eluted HPK1 was dialyzed overnight against 0.8 L of 50 mM HEPES-NaOH, pH 7.5, 400 mM NaCl, 20 mM imidazole-HCl pH 7.5, 1 mM TCEP, 2 μM leupeptin, 2 μM E-64, 2 mM ATP-NaOH pH 7.3, 5 mM MgCl2 and 1 mg TEV (this step simultaneously allows for reduction of the imidazole concentration in preparation for the subsequent reverse IMAC chromatography step, removal of the polyhistidine purification tag by TEV protease, and autophosphorylation of HPK1 in the presence of MgATP). The de-tagged and autophosphorylated HPK1 was adjusted to 40 mM imidazole-HCl, pH 7.5, and passed through a 10 mL column of ProBond resin similarly equilibrated. […] The peak fractions containing HPK1 were pooled and concentrated to approximately 2.5 mL by using a centrifugal concentrator (Millipore). The concentrated HPK1 was adjusted to 20% (v/v) glycerol by the addition of 50% (v/v) glycerol, resulting in a final formulation of 25 mM HEPES-NaOH pH 7.5, 250 mM NaCl, 0.25 mM TCEP and 20% (v/v) glycerol. […] Aliquots of the enzyme were flash frozen in liquid nitrogen and stored at −80° C. The final product contains a glycine-serine extension at the N-terminus of the full-length protein, as a result of the cloning strategy.

Sequence of human full-length autophosphorylated recombinant HPK1 (Q92918 other isoform, or with tags, fused parts or gaps): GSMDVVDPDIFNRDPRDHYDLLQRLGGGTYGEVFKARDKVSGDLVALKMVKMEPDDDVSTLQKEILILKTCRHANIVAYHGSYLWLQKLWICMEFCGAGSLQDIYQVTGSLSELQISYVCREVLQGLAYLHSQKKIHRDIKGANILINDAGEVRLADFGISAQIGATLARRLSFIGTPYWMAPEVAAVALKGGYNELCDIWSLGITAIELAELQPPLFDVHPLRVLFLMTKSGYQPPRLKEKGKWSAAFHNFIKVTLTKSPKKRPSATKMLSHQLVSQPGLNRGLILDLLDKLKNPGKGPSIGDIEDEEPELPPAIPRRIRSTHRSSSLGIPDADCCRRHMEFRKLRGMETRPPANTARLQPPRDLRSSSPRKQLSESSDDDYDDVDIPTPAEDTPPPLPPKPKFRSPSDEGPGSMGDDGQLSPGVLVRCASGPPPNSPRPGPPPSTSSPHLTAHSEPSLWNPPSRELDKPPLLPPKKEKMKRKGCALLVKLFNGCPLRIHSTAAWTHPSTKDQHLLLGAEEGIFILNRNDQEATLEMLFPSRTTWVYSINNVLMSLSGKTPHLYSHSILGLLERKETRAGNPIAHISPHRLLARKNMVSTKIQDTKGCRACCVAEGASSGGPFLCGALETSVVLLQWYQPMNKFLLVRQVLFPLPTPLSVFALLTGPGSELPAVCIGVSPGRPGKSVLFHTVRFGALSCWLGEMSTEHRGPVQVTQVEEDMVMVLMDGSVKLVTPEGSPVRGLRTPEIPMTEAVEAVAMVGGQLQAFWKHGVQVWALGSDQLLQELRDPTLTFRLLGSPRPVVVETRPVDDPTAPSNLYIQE

Structure (SMILES) | pKi
CC[C@@H]1CCc2nnc(-c3cccc(N4Cc5c(cc(N6CCC[C@H]6C)nc5[C@@H](C)N)C4=O)n3)n21 [Example 7, 4-[(1R)-1-aminoethyl]-2-{6-[(5R)-5-ethyl-6,7-dihydro-5H-pyrrolo[2,1-c][1,2,4]triazol-3-yl]pyridin-2-yl}-6-[(2R)-2-methylpyrroli-din-1-yl]-2,3-dihydro-1H-pyrrolo[3,4-c]pyridin-1-one] | 8.55
CCN(C)c1cc2c(c([C@@H](C)N)n1)CN(c1cccc(-c3nnc(C)n3CC)n1)C2=O (stereo in doubt) [Example 127, 4-[(1ξ)-1-aminoethyl]-6-[ethyl(methyl)amino]-2-[6-(4-ethyl-5-methyl-4H-1,2,4-triazol-3-yl)pyridin-2-yl]-2,3-dihydro-1H-pyrrolo[3,4-c]pyridin-1-one] | 8.85
CCCn1cnnc1-c1cccc(N2Cc3c(cc(N(C)C)nc3[C@H](N)CC)C2=O)n1 (stereo in doubt) [Example 142, 4-[(1ξ)-1-aminopropyl]-6-(dimethyl-amino)-2-[6-(4-propyl-4H-1,2,4-triazol-3-yl)pyridin-2-yl]-2,3-dihydro-1H-pyrrolo[3,4-c]pyridin-1-one] | 8.81
CC[C@@H]1CCc2nnc(-c3cccc(N4Cc5c(cc(N(C)C(C)C)nc5[C@@H](C)N)C4=O)n3)n21 [Example 12, 4-[(1R)-1-aminoethyl]-2-{6-[(5R)-5-ethyl-6,7-dihydro-5H-pyrrolo[2,1-c][1,2,4]triazol-3-yl]pyridin-2-yl}-6-[methyl(propan-2-yl)amino]-2,3-dihydro-1H-pyrrolo[3,4-c]pyridin-1-one] | 8.70
CC[C@@H]1CCc2nnc(-c3cccc(N4Cc5c(cc(N(C)C)nc5CNC)C4=O)n3)n21 [Example 207, 6-(dimethyl-amino)-2-{6-[(5R)-5-ethyl-6,7-dihydro-5H-pyrrolo[2,1-c] [1,2,4]triazol-3-yl]pyridin-2-yl}-4-[(methyl-amino)methyl]-2,3-dihydro-1H-pyrrolo[3,4-c] pyridin-1-one] | 8.57
CC[C@H]1CCc2nnc(-c3cccc(N4Cc5c(cc(N6CCC[C@H]6C)nc5[C@@H](N)CC)C4=O)n3)n21 [Example 15, 4-[(1S)-1-aminopropyl]-2-{6-[(5ξ)-5-ethyl-6,7-dihydro-5H-pyrrolo[2,1-c][1,2,4]triazol-3-yl]pyridin-2-yl}-6-[(2R)-2-methylpyrroli-din-1-yl]-2,3-dihydro-1H-pyrrolo[3,4-c]pyridin-1-one] | 8.07
CC[C@@H]1CCc2nnc(-c3cccc(N4Cc5c(cc(N6CCC[C@H]6C)nc5[C@H](C)N)C4=O)n3)n21 [Example 8, 4-[(1S)-1-aminoethyl]-2-{6-[(5R)-5-ethyl-6,7-dihydro-5H-pyrrolo[2,1-c][1,2,4]triazol-3-yl]pyridin-2-yl}-6-[(2R)-2-methylpyrroli-din-1-yl]-2,3-dihydro-1H-pyrrolo[3,4-c]pyridin-1-one] | 8.25
CNCc1nc(N(C)C)cc2c1CN(c1cccc(-c3nnc4n3[C@H](C)CC4)n1)C2=O [Example 209, 6-(dimethyl-amino)-4-[(methylamino)methyl]-2-{6-[(5R)-5-methyl-6,7-dihydro-5H-pyrrolo[2,1-c] [1,2,4]triazol-3-yl]pyridin-2-yl}-2,3-dihydro-1H-pyrrolo[3,4-c] pyridin-1-one] | 8.68
CCCn1cnnc1-c1cccc(N2Cc3c(cc(N4CCC[C@H]4C)nc3[C@@H](N)CC)C2=O)n1 [Example 145, 4-[(1S)-1-aminopropyl]-6-[(2R)-2-methylpyrroli-din-1-yl]-2-[6-(4-propyl-4H-1,2,4-triazol-3-yl)pyridin-2-yl]-2,3-dihydro-1H-pyrrolo[3,4-c]pyridin-1-one] | 9.34
C[C@@H](N)c1nc(C2(C)CC2)cc2c1CN(c1cccc(-c3nncn3C3CCC3)n1)C2=O (stereo in doubt) [Example 103, 4-[(1ξ)-1-aminoethyl]-2-[6-(4-cyclobutyl-4H-1,2,4-triazol-3-yl)pyridin-2-yl]-6-(1-methylcyclo-propyl)-2,3-dihydro-1H-pyrrolo[3,4-c]pyridin-1-one] | 8.86
CCC(CC)n1cnnc1-c1cccc(N2Cc3c(cc(C4(C)CC4)nc3[C@@H](C)N)C2=O)n1 (stereo in doubt) [Example 126, 4-[(1ξ)-1-aminoethyl]-6-(1-methyl-cyclopropyl)-2-{6-[4-(pentan-3-yl)-4H-1,2,4-triazol-3-yl]pyridin-2-yl}-2,3-dihydro-1H-pyrrolo[3,4-c]pyridin-1-one] | 8.75
CCC(CC)n1cnnc1-c1cccc(N2Cc3c(cc(C4(C)CC4)nc3[C@H](C)N)C2=O)n1 (stereo in doubt) [Example 125, 4-[(1ξ)-1-aminoethyl]-6-(1-methyl-cyclopropyl)-2-{6-[4-(pentan-3-yl)-4H-1,2,4-triazol-3-yl]pyridin-2-yl}-2,3-dihydro-1H-pyrrolo[3,4-c]pyridin-1-one] | 8.85
C[C@@H]1CCCN1c1cc2c(c([C@@H](C)N)n1)CN(c1cccc(-c3nnc4n3[C@@H](C)CC4)n1)C2=O [Example 24, 4-[(1ξ)-1-aminoethyl]-2-{6-[(5ξ)-5-methyl-6,7-dihydro-5H-pyrrolo[2,1-c][1,2,4]triazol-3-yl]pyridin-2-yl}-6-[(2R)-2-methylpyrroli-din-1-yl]-2,3-dihydro-1H-pyrrolo[3,4-c]pyridin-1-one] | 8.75
CC[C@H](N)c1nc(N2CCC[C@H]2C)cc2c1CN(c1cccc(-c3nncn3CC)n1)C2=O [Example 141, 4-[(1S)-1-aminopropyl]-2-[6-(4-ethyl-4H-1,2,4-triazol-3-yl)pyridin-2-yl]-6-[(2R)-2-methylpyrroli-din-1-yl]-2,3-dihydro-1H-pyrrolo[3,4-c]pyridin-1-one] | 9.36
CC[C@@H](N)c1nc(C2(C)CC2)cc2c1CN(c1cccc(-c3nncn3C3CCC3)n1)C2=O (stereo in doubt) [Example 105, 4-[(1ξ)-1-aminopropyl]-2-[6-(4-cyclobutyl-4H-1,2,4-triazol-3-yl)pyridin-2-yl]-6-(1-methylcyclo-propyl)-2,3-dihydro-1H-pyrrolo[3,4-c]pyridin-1-one] | 8.70
CC[C@H](N)c1nc(N(C)C)cc2c1CN(c1cccc(-c3nncn3CC)n1)C2=O (stereo in doubt) [Example 147, 4-[(1ξ)-1-aminopropyl]-6-(dimethyl-amino)-2-[6-(4-ethyl-4H-1,2,4-triazol-3-yl)pyridin-2-yl]-2,3-dihydro-1H-pyrrolo[3,4-c]pyridin-1-one] | 9.00
CCn1cnnc1-c1cccc(N2Cc3c(cc(N(C)C)nc3[C@@H](C)N)C2=O)n1 (stereo in doubt) [Example 153, 4-[(1ξ)-1-aminoethyl]-6-(dimethyl-amino)-2-[6-(4-ethyl-4H-1,2,4-triazol-3-yl)pyridin-2-yl]-2,3-dihydro-1H-pyrrolo[3,4-c]pyridin-1-one] | 8.90
C[C@H](N)c1nc(C2(C)CC2)cc2c1CN(c1cccc(-c3nncn3C3CCC3)n1)C2=O (stereo in doubt) [Example 104, 4-[(1ξ)-1-aminoethyl]-2-[6-(4-cyclobutyl-4H-1,2,4-triazol-3-yl)pyridin-2-yl]-6-(1-methylcyclo-propyl)-2,3-dihydro-1H-pyrrolo[3,4-c]pyridin-1-one] | 8.63
CCCn1cnnc1-c1cccc(N2Cc3c(cc(N(C)C)nc3[C@@H](N)CC)C2=O)n1 [Example 143, 4-[(1ξ)-1-aminopropyl]-6-(dimethyl-amino)-2-[6-(4-propyl-4I-1,2,4-triazol-3-yl)pyridin-2-yl]-2,3-dihydro-1I-pyrrolo[3,4-c]pyridin-1-one] | 8.43
